Results taken from US6287813A, “Antibiotic-based gene regulation system” (Cistronics Cell Technology GmbH, priority 1999, dated 2001).

Experiments:
PIT/PPIR system = molecular target: T1, PIT/PPIR system (Streptomyces coelicolor, UniProt Q9ADN3); experiment: Positive feedback vector pMF170 (PPIR-GFP-IRES-PIT-pA), GFP fluorescence microscopy; assay type: cell-based; conditions: pMF170 in CHO-K1, BHK-21 or HeLa cells
T1 construct: pMF156/pTWIN in CHO cells, PPIR-SEAP or GFP reporter
T1 sequence (Q9ADN3 1-252): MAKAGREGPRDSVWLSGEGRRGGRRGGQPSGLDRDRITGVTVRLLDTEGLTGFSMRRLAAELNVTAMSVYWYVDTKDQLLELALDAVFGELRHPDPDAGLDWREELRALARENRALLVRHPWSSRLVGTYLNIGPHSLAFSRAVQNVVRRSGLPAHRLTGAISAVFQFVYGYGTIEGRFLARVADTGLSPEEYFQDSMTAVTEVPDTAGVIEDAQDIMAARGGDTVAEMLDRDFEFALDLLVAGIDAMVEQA
From the text: These positive feedback regulation vectors that were constructed contain both the green fluorescent protein GFP and PIT in a dicistronic, PPIR -driven configuration.
For construction of the autoregulatory system, PIT was excised from pMF156 by EcoRI/HindIII and cloned into the polylinker of the eukaryotic expression vector pSBC-2 (EcoRI/HindIII). As a pSBC-2 derivative, the resulting plasmid pMF169 is compatible to the pSBC-1 derivative pMF164 (PPIR -GFP) and allows fusion of both expression units via their SspI/NotI restriction sites, thereby generating pMF170. pMF170 contains a dicistronic PPIR -regulated expression unit encoding GFP in the first and PIT in the second cistron. Cap-independent translation initiation of the second cistron is enabled by a picornaviral internal ribosomal entry site (IRES) encoded upstream of PIT.

[1] = molecular target: T2, TET-responsive system (tTA/PhCMV*-1) (Escherichia coli, UniProt P04483); experiment: SEAP reporter assay, CHO-TWIN clones transfected with pMF111 (PhCMV*-1-SEAP); assay type: cell-based; conditions: CHO-TWIN1108 + pMF111; for SEAP Production (%): crossregulation
T2 construct: expressed in transfected cells; host or cells: CHO-K1 clones CHO-TWIN195 and CHO-TWIN1108 (pTWIN1)
T2 sequence (P04483 whole entry, added parts left off): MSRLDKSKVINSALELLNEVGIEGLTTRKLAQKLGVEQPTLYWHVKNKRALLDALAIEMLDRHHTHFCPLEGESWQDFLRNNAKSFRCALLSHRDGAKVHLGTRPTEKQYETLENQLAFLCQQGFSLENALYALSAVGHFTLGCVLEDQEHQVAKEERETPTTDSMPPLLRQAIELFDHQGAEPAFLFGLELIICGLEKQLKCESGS
From the text: pTWIN contains both PIT and tTA in a PSV40 -driven dicistronic configuration. For construction of pTWIN, PIT was first transferred from pMF156 as an EcoRI/HindIII fragment to the corresponding sites of pSBC-1 (EcoRI/HindIII; resulting in pMF167) before the PIT expression unit could be fused to the tTA expression unit contained on pSBC2-tTA (Fussenegger et al., 1997, supra) via SspI/NotI sites. Thus, pTWIN contains the dicistronic PSV40 -PIT-IRES-tTA-pA expression cassette.
Chinese hamster ovary cells (CHO-K1, ATCC: CCL 61), Baby hamster kidney cells (BHK-21, ATCC: CRL-8544), and HeLa cells (ATCC: CRL-7923) as well as stable cell lines CHO-PIT1, CHO-PIT2, CHO-TWIN195, CHO-TWIN1108 and CHO-PIT1-SEAP were cultured as described before (Fussenegger et al., 1998, Nat. Biotechnol. 16,468-472) in the presence of appropriate antibiotics: G418 400 μg/ml; zeocin 100 μg/ml. Optimized CaPO4 protocols were used for high efficiency transient transfection of all cell lines (id). Transient transfected cells were routinely analyzed after 48 h for GFP or SEAP expression using fluorescence microscopy and p-nitrophenolphosphate-based light absorbance timecourse, respectively, as described before (Fussenegger et al., 1998, Nat. Biotechnol. 16, 468-472; Berger et al., 1988, Gene 66, 1-10 b). For construction of stable CHO-PIT and CHO-TWIN cell lines, CHO-K1 was cotransfected either with pMF156 or pTWIN1 and pSV2neo carrying the G418 resistance gene. CHO-PIT1-SEAP was constructed by cotransfection of pMF172 and pZeoSV2 (Invitrogen). For assessment of dose-response characteristics of PPIR -regulated gene expression, CHO-PIT1-SEAP were cultured at cell densities of 150,000/ml for 48 at various PI concentrations. The mixed populations were cloned using FACS-mediated single-cell-sorting (FACStar^Plus; Beckton Dickinson). Gel retardation assay were performed as described (Salah-Bey et al., 1995, supra) using Pip purified from an overproducing strain of E. coli. Pip (0.02 pmol) was titrated with a range of antibiotic concentrations in a reaction volume of 20 μl. Protein solutions were pre-incubated at room temperature for 15 min. in the absence or presence of PI or its derivative quinupristin in a buffer containing 10 mM Tris (pH 7.8), 10 mM MgCl2, 300 mM NaCl, 2 mM DTT and 10% glycerol. An EcoRI-HindII PPTR fragment (0.02 pmol) containing three Pip binding sites (radiolabelled using α-^32 P)dATP was added and incubated for 15 min. To minimize nonspecific protein binding and increase protein stability, 2 μg of poly dIdC and 20 μg BSA were included in the incubation mix. Protein-DNA complexes were separated on 5% polyacrylamide,TBE gels and visualized by autoradiography.
CHO-TWIN195 and CHO-TWIN1108 were transfected under identical conditions with the isogenic plasmids containing the SEAP gene under control of the tTA-activated promoter PhCMV*-1 (pMF111) or the PIT-activated promoter PPIR (pMF172). Transfected cells were grown for 48 h in the presence or absence of either antibiotic prior to assay of SEAP activity.
Table 6: Comparison of the regulation performance of streptogramin- (PI and virginiamycin; VIR) and tetracycline-based gene regulation systems. The two cell clones CHO-TWIN195 and CHO-TWIN1108 containing both pristinamycin- and tetracycline-dependent transactivators were transfected with either the streptogramin-responsive or the TET-responsive SEAP reporter plasmids pMF172 (PPIR -SEAP) and pMF111 (PhCMV*-1 -SEAP), respectively, and the relative SEAP production was assessed. SEAP production values are normalized by SEAP activities under the antibiotic-free, active promoter conditions as follows: pMF172 in CHO-TWIN195:1.7 mU/ml; in CHO-TWIN1108 : 1.8 mU/ml. pMF111 in CHO-TWIN195 : 18.6 mU/ml; in CHO-TWIN1108 : 19.2 mU/ml.
Table 7: Compatibility of the streptogramin- and tetracycline-based gene regulation systems. Crossregulation of pristinamycin (PI) and the tetracyclines doxycycline (DOX) and tetracycline (TET). […]

CHO cells = experiment: CHO cell morphology, growth and toxicity; assay type: cell-based, Chinese hamster
Method: However, pristinamycin has no influence on expression levels of PSV40 or PCMV -driven SEAP expression constructs (data not shown). […] Similar PI-dependent gene expression using the PIT/PPIR system has also been observed in BHK-21 and HeLa cells (not shown). […] This is the same order of magnitude as tissue concentrations reached in antibiotic therapy. Only much higher PI concentrations (above 50 μg/ml) were toxic for CHO cells.

pristinamycin I [PI]
GFP-expression in the presence of PI (PIT/PPIR system): completely repressed | Effect on expression from the TET-responsive system [1]: no effect | SEAP Production (%) ([1]; 2 μg/ml): 94.8 ± 5.3% | SEAP Production (%) ([1]; 10 μg/ml, 2880 min): 92.4 ± 7.9% | Effects on CHO cell morphology and growth (CHO cells; PI 2 μg/ml): No deleterious effects | PI concentration toxic for CHO cells (CHO cells; hamster, cho cells): above 50 μg/ml
